*1 amine or outer side, *2 acyl side, *3 side chain or, on linkers, in order; H or OH if unused. Where a SMILES comes first, the peptide text is derived from it. Bridges are numbered along the chain shown (N, C = ends). Roman numbers before positions name the chains, in order. X1 = CN(CCCC(=O)NC(CCC(=O)[*:1])CCC(=O)[*:2])C(=O)c1ccccc1-c1c2ccc(=N)c(S(=O)(=O)O)c-2oc2c(S(=O)(=O)O)c(N)ccc12; X2 = NC(CCC(=O)[*:1])CCC(=O)[*:2]

The record followed here is paper PMC5884648, “Relationship between the agonist activity of synthetic ligands of TRAIL-R2 and their cell surface binding modes” (Oncotarget, 2018).

One assay deals with T1, human TRAIL-R2 (Homo sapiens, UniProt O14763).
T1 construct: purchased Enzo Life Sciences
T1 sequence (O14763 56-440): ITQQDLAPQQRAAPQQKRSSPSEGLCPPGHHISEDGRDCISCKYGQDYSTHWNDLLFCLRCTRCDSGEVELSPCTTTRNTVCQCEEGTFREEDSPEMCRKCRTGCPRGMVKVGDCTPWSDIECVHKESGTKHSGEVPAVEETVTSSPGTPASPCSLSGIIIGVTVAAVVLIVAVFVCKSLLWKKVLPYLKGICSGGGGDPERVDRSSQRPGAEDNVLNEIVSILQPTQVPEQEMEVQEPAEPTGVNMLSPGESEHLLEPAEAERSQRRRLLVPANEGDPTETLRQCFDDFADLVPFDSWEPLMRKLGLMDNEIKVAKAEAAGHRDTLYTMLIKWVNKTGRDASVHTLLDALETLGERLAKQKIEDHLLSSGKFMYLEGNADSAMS
Description: Surface plasmon resonance on sensor-immobilized TRAIL-R2. It is filed as binding. The following applies: for koff / kon: SPR, 25° C, Langmuir model. The method, then: SPR assays were performed on a Biacore T200™, at 25° C. The running buffer was HBS-EP [10 mM HEPES (pH 7.4) containing 0.15 M NaCl, 3.4 mM EDTA and 0.005% (v/v) Tween P20]. The human TRAIL-R2 (Enzo Life Sciences, Farmingdale, NY, USA) receptor was immobilized on a sCM5 sensor chip (GE Healthcare) using the standard amine coupling procedure. The receptors were diluted in 10 mM acetate buffer (pH 5.0) at a concentration of 5 μg/mL. The TRAIL-R2 immobilization level on the sensor chip was 430 RU. Peptides were injected at a flow rate of 5 μL/min for 120 s and allowed to dissociate for an additional 420 s. Surfaces were then regenerated for 5 s with 25 mM HCl. All binding curves were double-referenced (i.e. subtraction of the data of the empty flow cell followed by the subtraction of the data from a running buffer injection cycle).
(§1) Double-referenced SPR binding curves sets were fitted globally using the BIAevaluation 4.1.1 (GE Healthcare Biacore) or TraceDrawer (Ridgeview Diagnostics AB, Uppsala, Sweden) softwares. The signal recorded with the LigandTracer on an empty spot or slide was subtracted from that recorded on cell-carrying slides. The resulting binding curves were analyzed by kinetic distribution analysis using the tool Interaction Map (Ridgeview Diagnostics AB, Uppsala, Sweden). Interaction Map decomposes the kinetic curve recorded for the binding of a homogeneous ligand to a heterogeneous group of targets into its different components. Results are represented as interaction maps (kon versus koff, log scale), where the color of each populated area represents its degree of contribution to the kinetic curve (red = high contribution, blue = low contribution).
On the technique in general: In SPR one partner is held on a chip, and binding of the other changes the refractive index at the surface.

Another assay concerns HCT116 cells. Description: Cell viability MTS assay, HCT116. The following applies: 24 hours. It is filed as cell-based, human. Here is the method: (§2) BJAB, Jurkat and HCT116 cells (10^5 cells/well) were cultured in 100 µL of culture medium in 96-flat bottom well plates. The next day, cells were treated with the indicated concentrations of the different TRAILmin/DR5 peptides. After 24 hours of treatment cell viability measurement was performed by the MTS assay according to the manufacturer specification (Promega Corporation, Madison, WI, USA).
In general terms: Tetrazolium dyes change colour on reduction, which living cells bring about.

The test system of the next assay is Jurkat cells. Description: Cell viability MTS assay, Jurkat. It is filed as cell-based, human. Conditions: 24 hours. Here is the method:
as §2

A further assay has as its system BJAB cells. The experiment in a line: Cell viability MTS assay, BJAB. In kind it is cell-based, human. The following applies: 24 hours. Here is the method:
as §2

For another assay, the target named is T2, TRAIL-R2 on BJAB cells (Homo sapiens, UniProt O14763).
T2 construct: expressed in transfected cells
T2 sequence (O14763 56-440): as above
Description: Flow cytometry staining with fluorescent peptides, BJAB. It is filed as binding. Here is the method:
(§3) 10^6 cells were washed in PBS containing 2% FCS and then incubated at 4° C for 30 min with an anti-TRAIL-R2 antibody (clone BK9 Diaclone, Besançon, France) according to concentration recommended by the manufacturer or with fluorescent peptides at the concentration of 1 µM. After two washes in PBS-2% FBS, TRAIL-R2 expression was monitored by flow cytometry (Guava easyCyte™, Merck Milipore, Darmstadt, Germany) and data were analyzed with InCyte Software (Merck Milipore).

Assay [1] has as its target T3, TRAIL-R2 expressed on Jurkat cells (Homo sapiens, UniProt O14763).
T3 construct: we used BJAB, HCT116 and Jurkat that express a natural level of TRAIL-R2 receptors; endogenous in cells; host or cells: Jurkat
Description: LigandTracer real time binding on living Jurkat cells.

Another assay concerns the target T4, TRAIL-R2 on HCT116 cells (Homo sapiens, UniProt O14763).
T4 construct: we used BJAB, HCT116 and Jurkat that express a natural level of TRAIL-R2 receptors; endogenous in cells; host or cells: HCT116
The experiment in a line: Flow cytometry staining with fluorescent peptides, HCT116. In kind it is binding. Here is the method:
as §3
In general terms: A flow cytometer gives signals particle by particle.

Assay [2] has as its target T5, TRAIL-R2 expressed on HCT116 cells (Homo sapiens, UniProt O14763).
T5 construct: we used BJAB, HCT116 and Jurkat that express a natural level of TRAIL-R2 receptors; endogenous in cells; host or cells: HCT116
Description: LigandTracer real time binding on living HCT116 cells. The following applies: HCT116 cells expressing TRAIL-R2. Here is the method: The adherent cells HCT116-TRAIL-R2-DEF and HCT116 cells were directly plated on glass slides (Ø20 mm) (10^6 cells/well). The cells in suspension (BJAB and BJAB-TRAIL-R2-DEF) were covalently adhered to glass slides coated with poly-L-lysine (0.1% v/v) (Sigma Aldrich, Saint Louis, MO, USA). The adhesion was strong enough for measurement during 10h. After 24 hours, the slides were fixed with superglue at different locations of a Petri dish, which was inserted in the LigandTracer Green instrument (Ridgeview Instrument AB, Uppsala, Sweden). An empty spot or empty glass slide fixed to the Petri dish was used to record the background signal. This set-up allowed the simultaneous monitoring of the binding of a given peptide to different cell-carrying glass slides fixed to the dish. […] The fluorescence signal is recorded over time when the slide is out of the solution, and therefore corresponds to the amount of bound peptide. […]
Double-referenced SPR binding curves sets were fitted globally using the BIAevaluation 4.1.1 (GE Healthcare Biacore) or TraceDrawer (Ridgeview Diagnostics AB, Uppsala, Sweden) softwares. The signal recorded with the LigandTracer on an empty spot or slide was subtracted from that recorded on cell-carrying slides. The resulting binding curves were analyzed by kinetic distribution analysis using the tool Interaction Map (Ridgeview Diagnostics AB, Uppsala, Sweden). […]

Assay [3] addresses TRAIL-R2 expressed on BJAB cells (Homo sapiens, UniProt O14763). The experiment in a line: LigandTracer real time binding on living BJAB cells. Also on record: expressed in transfected cells. Here is the method: The adherent cells HCT116-TRAIL-R2-DEF and HCT116 cells were directly plated on glass slides (Ø20 mm) (10^6 cells/well). The cells in suspension (BJAB and BJAB-TRAIL-R2-DEF) were covalently adhered to glass slides coated with poly-L-lysine (0.1% v/v) (Sigma Aldrich, Saint Louis, MO, USA). The adhesion was strong enough for measurement during 10h. After 24 hours, the slides were fixed with superglue at different locations of a Petri dish, which was inserted in the LigandTracer Green instrument (Ridgeview Instrument AB, Uppsala, Sweden). An empty spot or empty glass slide fixed to the Petri dish was used to record the background signal. This set-up allowed the simultaneous monitoring of the binding of a given peptide to different cell-carrying glass slides fixed to the dish. Three mL of solution (culture medium without or with fluorescent peptide) were added to the dish. In the LigandTracer instrument, the dish is tilted and rotates. Consequently the 3 mL solution covers only the lower part of the dish and each cell-carrying slide is alternatively in contact and out of contact with the solution (at intervals of 8 to 16 s). The fluorescence signal is recorded over time when the slide is out of the solution, and therefore corresponds to the amount of bound peptide. The solution in the dish was initially the culture medium (∼30 min) to provide a stable base line. The fluorescent peptide was then added in increasing doses (10, 30 and 90 nM) every two to three hours. Finally the peptide-containing sample was replaced with fresh medium and the dissociation of the peptide from the cells was followed overnight. The measurements were conducted at room temperature (approximately 20° C).
as §1

TRAIL-R2 expressed on BJAB cells, sequence (O14763 56-440): as above
T4 sequence (O14763 56-440): as above
T3 sequence (O14763 56-440): as above
T5 sequence (O14763 56-440): as above

By koff is commonly meant the first-order rate constant of dissociation. Higher therefore signals a short-lived complex. Usually kon stands for the rate constant with which the complex forms. Low readings indicate slow association, high ones fast association. On human TRAIL-R2, `CC[C@H](C)[C@@H]1NC(=O)[C@H](CCCNC(=N)N)NC(=O)[C@H](CC(N)=O)NC(=O)[C@H](CC(=O)O)NC(=O)[C@H](CC(C)C)NC(=O)[C@@H](NC(=O)[C@H](CC(=O)O)NC(=O)[C@H](Cc2c[nH]c3ccccc23)NC(C)=O)CSSC[C@@H](C(=O)N[C@H](C(=O)N[C@@H](CCCCNC(=O)CCC(N)CCC(=O)NCCCC[C@H](NC(=O)[C@@H](NC(=O)[C@@H]2CSSC[C@H](NC(=O)[C@H](CC(=O)O)NC(=O)[C@H](Cc3c[nH]c4ccccc34)NC(C)=O)C(=O)N[C@@H](CC(C)C)C(=O)N[C@@H](CC(=O)O)C(=O)N[C@@H](CC(N)=O)C(=O)N[C@@H](CCCNC(=N)N)C(=O)N[C@@H]([C@@H](C)CC)C(=O)NCC(=O)N[C@@H](CCCNC(=N)N)C(=O)N[C@@H](CCCNC(=N)N)C(=O)N[C@@H](CCC(N)=O)C(=O)N2)C(C)C)C(=O)N[C@@H](CC(C)C)C(N)=O)C(=O)N[C@@H](CC(C)C)C(N)=O)C(C)C)NC(=O)[C@H](CCC(N)=O)NC(=O)[C@H](CCCNC(=N)N)NC(=O)[C@H](CCCNC(=N)N)NC(=O)CNC1=O` (some centres unmarked) [1d] (I: Ac-WDCLDNRIGRRQCVKL-NH2 / II: Ac-WDCLDNRIGRRQCVKL-NH2; disulfide I:3-I:13, II:3-II:13; linker I:15-II:15 via X2; N-terminus and C-terminus assumed) had a koff of 0.0014 s⁻¹ and an association rate constant (kon) of 28000 M⁻¹ s⁻¹. This molecule yielded an Rmax at human TRAIL-R2 (TRAIL-R2 surface 1, one:one interaction model) of 38. This molecule had an Rmax on human TRAIL-R2 (TRAIL-R2 surface 2, one:one interaction model) of 13. Also, in the assay on HCT116 cells, the “apoptosis induction in HCT116 cells” value is “strong resistance”. The “apoptosis induction in Jurkat cells” value in the assay on Jurkat cells was “strong resistance”. Besides, the “apoptosis induction in BJAB cells” value in the assay on BJAB cells is “underwent apoptosis”.

In the case of `CC[C@H](C)[C@@H]1NC(=O)[C@H](CCCNC(=N)N)NC(=O)[C@H](CC(N)=O)NC(=O)[C@H](CC(=O)O)NC(=O)[C@H](CC(C)C)NC(=O)[C@@H](NC(=O)[C@H](CC(=O)O)NC(=O)[C@H](Cc2c[nH]c3ccccc23)NC(C)=O)CSSC[C@@H](C(=O)N[C@H](C(=O)N[C@@H](CCCNC(=N)N)C(=O)N[C@@H](CC(C)C)C(N)=O)C(C)C)NC(=O)[C@H](CCC(N)=O)NC(=O)[C@H](CCCNC(=N)N)NC(=O)[C@H](CCCCNC(=O)CCC(CCC(=O)NCCCC[C@@H]2NC(=O)CNC(=O)[C@H]([C@@H](C)CC)NC(=O)[C@H](CCCNC(=N)N)NC(=O)[C@H](CC(N)=O)NC(=O)[C@H](CC(=O)O)NC(=O)[C@H](CC(C)C)NC(=O)[C@@H](NC(=O)[C@H](CC(=O)O)NC(=O)[C@H](Cc3c[nH]c4ccccc34)NC(C)=O)CSSC[C@@H](C(=O)N[C@H](C(=O)N[C@@H](CCCNC(=N)N)C(=O)N[C@@H](CC(C)C)C(N)=O)C(C)C)NC(=O)[C@H](CCC(N)=O)NC(=O)[C@H](CCCNC(=N)N)NC2=O)NC(=O)CCCN(C)C(=O)c2ccccc2-c2c3ccc(=N)c(S(=O)(=O)O)c-3oc3c(S(=O)(=O)O)c(N)ccc23)NC(=O)CNC1=O` (some centres unmarked) [f2d] (I: Ac-WDCLDNRIGKRQCVRL-NH2 / II: Ac-WDCLDNRIGKRQCVRL-NH2; disulfide I:3-I:13, II:3-II:13; linker I:10-II:10 via X1; N-terminus and C-terminus assumed), the “binding by flow cytometry” value was “not” on TRAIL-R2 on BJAB cells (BJAB cells deficient for TRAIL-R2, peptide 1 µM); “bound” at TRAIL-R2 on BJAB cells (BJAB cells expressing TRAIL-R2, peptide 1 µM); “not” on TRAIL-R2 on HCT116 cells (HCT116 cells deficient for TRAIL-R2, peptide 1 µM); “bound” at TRAIL-R2 on HCT116 cells (HCT116 cells expressing TRAIL-R2, peptide 1 µM). Also, the koff on human TRAIL-R2 came to 0.00026 s⁻¹. Moreover, at human TRAIL-R2, the association rate constant (kon) amounted to 150000 M⁻¹ s⁻¹. In addition, the cell surface binding result is “weak binding signal, if any” in assay [1]; “bound weakly” in assay [2]; “weak signals” in [3] (BJAB cells deficient for TRAIL-R2); “strong binding” in [3] (BJAB cells expressing TRAIL-R2). For the same molecule, the fluorescent signal reached in assay [3] (BJAB cells that expressed TRAIL-R2, 10, 30 and (f1d) 90 nM) is above 25. For the same molecule, in the assay on HCT116 cells, the “apoptosis induction in HCT116 cells” value is recorded as “scarcely induced their apoptosis”. Further, in the assay with BJAB cells, the “apoptosis induction in BJAB cells” value is “induced apoptosis”.
